Key:
[1] = Morphological assessment / tolerability of treated PC3-mice; type: in vivo
Protocol: Selected mouse organs (kidney, pancreas and tumor) were dissected from the sacrificed animals and immediately frozen using liquid nitrogen. Frozen tissue samples were sectioned at 7 μm thickness using a cryostat maintained at −20 °C to −25 °C and mounted onto microscope glass slides, followed by staining with hematoxylin and eosin for microscopic examination using standard protocols (supplementary material).
Frozen tissue samples (kidney, pancreas and tumor) were sectioned at 7 µm thickness using a cryostat maintained at −20°C to −25°C and mounted onto microscope glass slides. Sections were air-dried at room temperature for 15 minutes and subsequently fixed in 4% paraformaldehyde for 10 minutes. After rinsing in phosphate-buffered saline, slides were stained with hematoxylin for 5 minutes, rinsed in running tap water and differentiated in 1% acid alcohol followed by bluing in ammonia water. Sections were then counterstained with eosin for 1 minute and briefly washed in 70% ethanol to remove excess stain. Slides were dehydrated through graded ethanol (70%, 95%, 100%) and mounted with a permanent mounting medium. Stained sections were examined using a light microscope.

PC3 tumors = test: In vivo combination therapy with everolimus in PC3-mice
Protocol: (b) Everolimus monotherapy: Mice received everolimus (5 mg/kg/day) on days 0, 2, and 4 of the therapy.

CO[C@H]1C[C@@H]2CC[C@@H](C)[C@@](O)(O2)C(=O)C(=O)N2CCCC[C@H]2C(=O)O[C@H]([C@H](C)C[C@@H]2CC[C@@H](OCCO)[C@H](OC)C2)CC(=O)[C@H](C)/C=C(\C)[C@@H](O)[C@@H](OC)C(=O)[C@H](C)C[C@H](C)/C=C/C=C/C=C/1C [everolimus]
Microscopic tissue examination, kidney ([1]; 5mg/kg (x3)): Vacuolar degeneration of some tubular epithelial cells. No other obvious lesions | Microscopic tissue examination, pancreas ([1]; 5mg/kg (x3)): No obvious lesions. | Tolerability (physical condition, weight fluctuations) ([1]; PC3-mice, three doses of everolimus): no observable side effects | Time tumor volume kept under 500 mm^3 (PC3 tumors; everolimus alone 5 mg/kg/day on days 0, 2, 4): 20 days | Median survival (PC3 tumors; everolimus alone 5 mg/kg/day on days 0, 2, 4, p > 0.5): ~ 25 days

Source: publication PMC12920379 (European Journal of Nuclear Medicine and Molecular Imaging, 2025)
